Entries after “also recorded” stand apart in the source; their conditions may differ. Marks after values point to notes of the source that are not given here.
Legend:
[1] = tested on: CD8+ T cells from healthy donors; test: In vitro induction of specific CTLs from PBMC of healthy HLA-B*0702 donors (IFNγ intracellular staining or ELISPOT); type: cell-based, human
Experimental: CD8+ T cells from healthy donors were in vitro stimulated with autologous dendritic cells loaded with each optimized cryptic peptide. After four stimulations, proliferating cells were tested for the presence of IFNγ producing CTLs upon stimulation with T2-B7 cells loaded with optimized or native peptides either by intracellular IFNγ staining or by IFNγ ELISPOT assay.
PBMC were collected by leukapheresis from healthy HLA-A*B702 volunteers. Dendritic cells (DC) were produced from adherent cells cultured with 500 IU/ml GM-CSF and 500 IU/ml IL-4, in complete synthetic medium (AIMV) for seven days. On day 7, DCs were pulsed with 10 μM of peptide during 2 hours and CD8^+ cells were purified by negative selection with CD8 Dynabeads Untouched Human CD8. CD8^+ cells (2 × 10^5) + CD8^− cells (6 × 10^4) were stimulated with 3 × 10^4 peptide-pulsed DC in AIMV medium supplemented with 1000 IU/ml IL-6 and 5 IU/ml IL-12 in round-bottomed 96-well plates.
From day 7, cultures were stimulated weekly with peptide-loaded DC in the presence of 20 IU/ml IL-2 and 10 ng/ml IL-7, 1 μg/ml anti-CD40 and 500 IU/ml IFNγ.
After the third stimulation, CD8 cells were maintained in AIMV supplemented with 20 IU/ml IL-2 during 7 days. Cultures were starved overnight with AIMV and then were tested in an intracellular IFNγ and an IFNγ ELISpot assay.
Stimulated T cells (10^5) from each pool were incubated with 2 × 10^5 T2 cells loaded with stimulating peptide in the presence of 20 μg/ml Brefeldin-A (Sigma, Oakville, Canada). Six hours later they were washed, stained with r-phycoerythrin-conjugated anti-CD8 antibody (Caltag Laboratories, Burlingame, CA, USA) in PBS for 25 min at 4°C, washed again, and fixed with 4% PFA. The cells were then permeabilized with PBS, 0.5% BSA, 0.2% saponin (Sigma, Oakville, Canada), and labelled with an allophycocyanin-conjugated anti-IFNγ mAb (PharMingen, Mississauga, Canada) for 25 min at 4°C before analysis with a FACSCalibur® flow cytometer.
Stimulated T cells were splited in four pools and IFNγ producing T cells was quantified in each pool by ELISpot using the Diaclone Kit Human IFNγ ELISpot (Besançon, France) according to manufacturer's recommendations. 250 000 cells were distributed per well and tested for the recognition of 10 μM of either the native or optimized peptide. Positive control was Concanavalin A and negative control was medium alone or an irrelevant peptide. All conditions were tested in sixplicates.

[2] = tested on: HLA-B*0702 transgenic mice; test: Vaccination of HLA-B*0702 transgenic mice; specific CTLs detected by cytotoxicity or IFNγ ELISPOT; type: in vivo, mouse; conditions: for immunogenicity in HLA-B*0702 transgenic mice (in words): specific CTL induction after vaccination, cytotoxicity (ratio 30/1) or IFNγ ELISpot; for Immunogenicity (number of responding mice/number of vaccinated mice): native peptides, 100 μg peptide in IFA s.c. with HBVcore128 helper epitope, twice at two weeks interval
Experimental: The HLA-B7 H-2 class-I knockout mice were previously described.
Mice were injected subcutaneously with 100 μg of peptide emulsified in Incomplete Freund's Adjuvant (IFA) in the presence of 150 μg of the I-A^b restricted HBVcore128 T helper epitope ([…]) twice at two weeks interval.
A particular protocol was applied for MAGE-A 274L9, with two injections of this peptide at two weeks interval and 15 days later one injection with each one of the native peptide.
On day 6 of culture the bulk responder populations were tested for specific cytotoxicity. […] Percentage of specific lysis was determined as: % Lysis = (Experimental Release-Spontaneous Release) / (Maximal Release-Spontaneous Release) × 100. Spontaneous release is obtained using medium only, maximum release with HCl 0.1 M.
Seven days after the last vaccination, spleens were removed and T cells were isolated by Ficoll centrifugation and tested ex vivo for the recognition of 10 μM of either the native or optimized peptide. IFNγ producing T cells were quantified by ELISpot using the Diaclone Kit Murine IFNγ ELISpot (Besançon, France) according to manufacturer's recommendations. 250 000 spleen T cells were distributed per well and tested for the recognition of 10 μM of either the native or optimized peptide. Positive control was Concanavalin A and negative control was medium alone. All conditions were tested in sixplicates.

[3] = biological target: T1, HLA-B*0702 (Homo sapiens, UniProt P01889); test: Measurement of peptide relative affinity to HLA-B*0702 (surface expression on T2-B7 cells); type: cell-based; conditions: for RA (Relative Affinity): 37°C 16 hours, peptide 100 μM to 0.1 μM, ME-1 mAb staining, RA = concentration inducing 20% of HLA-B*0702 expression / that of reference R10V, mean ± SD, at least three experiments, ≥ 10 = 10 or not measurable; for binding to / affinity for HLA-B*0702 (in words): relative to reference peptide R10V
T1 construct: expressed in transfected cells; host or cells: human T2-B7 cells (T2 transfected with HLA-B*0702)
Experimental: The protocol used has been described previously. Briefly, T2-B7 cells were incubated at 37°C for 16 hours with peptides concentrations ranging from 100 μM to 0.1 μM (100 μM, 10 μM, 1 μM and 0.1μM), and then stained with ME-1 monoclonal antibody (mAb) to quantify the surface expression of HLA-B*0702. For each peptide concentration, the HLA-B*0702 specific staining was calculated as the percentage of staining obtained with 100 μM of the reference peptide CMV265–274 (R10V; […], SEQ ID NO: 9). The relative affinity (RA) was determined as: RA = (Concentration of each peptide that induces 20% of HLA-B*0702-expression/Concentration of the reference R10V peptide that induces 20% of HLA-B*0702 expression). In case of non-binders peptide, RA is not evaluable since the 20% of HLA-B*0702 expression is not reach even with the highest concentration of peptide.

## APKHSDCLA [HER2/neu246A1, optimized Her2/neu246 modified at position 1 by an alanine]
[1]; CD8+ T cells from healthy donors, four stimulations with peptide loaded autologous DC
  immunogenicity in vitro in human PBMC (in words): confirmed
[1]; human healthy donor PBMC stimulated with optimized peptide loaded DC, T2-B7 cells loaded with optimized peptide
  Immunogenicity against optimized peptide (number of positive culture/number of total cultures): 2/4
[1]; human healthy donor PBMC stimulated with optimized peptide, T2-B7 cells loaded with corresponding native peptide
  Immunogenicity against native peptide (number of positive culture/number of total cultures): 1/4
[2]; HLA-B*0702 transgenic mice, target cells loaded with native peptide
  cross recognition of the native peptide by CTLs induced by the optimized peptide in mice (in words): able to recognize target cells loaded with their corresponding native peptide
[2]; mice vaccinated twice with the optimized peptide, cytotoxicity or IFNγ ELISPOT against target cells loaded with the optimized peptide
  Immunogenicity against optimized peptide (responding mice/vaccinated mice): 8/12
[2]; mice vaccinated twice with the optimized peptide, target cells loaded with the corresponding native peptide
  Immunogenicity against native peptide (responding mice/vaccinated mice): 5/12
[2]
  immunogenicity in HLA-B*0702 transgenic mice (in words): immunogenic

## APLSLGLET [Hsp70_397, Hsp70 derived native cryptic peptide]
[3]
  RA (Relative Affinity): ≥ 10
  binding to / affinity for HLA-B*0702 (in words): low affinity
[2]
  immunogenicity in HLA-B*0702 transgenic mice (in words): only the high affinity TERT4 was immunogenic

## APRCRAVRSL [TERT4, TERT derived peptide with complete consensus motif A1P2R3L9, control, dominant peptide]
[3]; SD
  RA (Relative Affinity): 0.74 ± 0.12
[3]
  binding to / affinity for HLA-B*0702 (in words): strongly bind to HLA-B*0702; also recorded: strong affinity
[2]
  immunogenicity in HLA-B*0702 transgenic mice (in words): immunogenic

## APRGVPQIEV [HSP70_466, HSP70 derived native peptide]
[2]
  Immunogenicity (number of responding mice/number of vaccinated mice): 3/3
  immunogenicity in HLA-B*0702 transgenic mice (in words): immunogenic

## APRSLGLEL [Hsp70_397 R3L9, optimized Hsp70_397, arginine at position 3 and leucine at C-terminal position]
[3]; SD
  RA (Relative Affinity): 1 ± 0.6
[3]
  binding to / affinity for HLA-B*0702 (in words): high HLA-B*0702 affinity

## APRSPLAPS [Her2/neu1069, Her2/neu derived native peptide]
[2]
  Immunogenicity (number of responding mice/number of vaccinated mice): 5/7
  immunogenicity in HLA-B*0702 transgenic mice (in words): immunogenic

## APRTKAEML [MAGE-A1_121 A1R3, optimized MAGE-A1_121, alanine at position 1 and arginine at position 3]
[3]; SD
  RA (Relative Affinity): 2.36 ± 0.28
[3]
  binding to / affinity for HLA-B*0702 (in words): high HLA-B*0702 affinity

## APVTKAEML [MAGE-A1_121 A1, MAGE-A1_121 with alanine at position 1]
[3]
  RA (Relative Affinity): ≥ 10
  binding to / affinity for HLA-B*0702 (in words): fail to bind to HLA-B*0702 with high affinity

## DPRRLVQLL [TERT444, TERT derived native cryptic peptide]
[3]
  RA (Relative Affinity): ≥ 10
  binding to / affinity for HLA-B*0702 (in words): low affinity
[2]
  immunogenicity in HLA-B*0702 transgenic mice (in words): only the high affinity TERT4 was immunogenic; also recorded: non-immunogenic

## EPFTKAEML [MAGE-A2_121, MAGE-A derived native cryptic peptide]
[3]
  RA (Relative Affinity): ≥ 10
  binding to / affinity for HLA-B*0702 (in words): low affinity

## EPITKAEIL [MAGE-A4_121, MAGE-A derived native cryptic peptide]
[3]
  RA (Relative Affinity): ≥ 10
  binding to / affinity for HLA-B*0702 (in words): low affinity

## EPVTKAEML [MAGE-A1_121, MAGE-A derived native cryptic peptide]
[3]
  RA (Relative Affinity): ≥ 10
  binding to / affinity for HLA-B*0702 (in words): low affinity

## GPKHSDCLA [Her2/neu246, Her2/neu derived native peptide]
[2]
  Immunogenicity (number of responding mice/number of vaccinated mice): 0/9
  immunogenicity in HLA-B*0702 transgenic mice (in words): non immunogenic

## GPRALAETS [MAGE-A1_267, native peptide shared by MAGE-A1 and MAGE-A4]
[2]
  Immunogenicity (number of responding mice/number of vaccinated mice): 0/3
  immunogenicity in HLA-B*0702 transgenic mice (in words): non immunogenic

## GPRALIETS [MAGE-A2_274, native peptide shared by MAGE-A2 and MAGE-A6]
[2]
  Immunogenicity (number of responding mice/number of vaccinated mice): 0/3
  immunogenicity in HLA-B*0702 transgenic mice (in words): non immunogenic

## GPRALVETS [MAGE-A3_274, native peptide shared by MAGE-A3 and MAGE-A12]
[2]
  Immunogenicity (number of responding mice/number of vaccinated mice): 2/3*
  immunogenicity in HLA-B*0702 transgenic mice (in words): very weak immunogenicity; also recorded: very weakly immunogenic

## SPKANKEIL [Her2/neu760, Her2/neu derived native peptide]
[2]
  Immunogenicity (number of responding mice/number of vaccinated mice): 4/9
  immunogenicity in HLA-B*0702 transgenic mice (in words): immunogenic

## SPREGPLPA [Her2/neu1151, Her2/neu derived native peptide]
[2]
  Immunogenicity (number of responding mice/number of vaccinated mice): 1/3
[2]; listed as HER2/neu1151
  immunogenicity in HLA-B*0702 transgenic mice (in words): immunogenic
[2]; listed as HER-2/neu1151
  immunogenicity in HLA-B*0702 transgenic mice (in words): very weakly immunogenic

## SPRLQLSND [CEA188, CEA derived native peptide]
[2]
  Immunogenicity (number of responding mice/number of vaccinated mice): 0/3
  immunogenicity in HLA-B*0702 transgenic mice (in words): non immunogenic

## YPEEISSMVL [Hsp70_115, Hsp70 derived native cryptic peptide]
[3]
  RA (Relative Affinity): ≥ 10
  binding to / affinity for HLA-B*0702 (in words): low affinity
[2]
  immunogenicity in HLA-B*0702 transgenic mice (in words): only the high affinity TERT4 was immunogenic

## YPVTNAVITV [Hsp70_137, Hsp70 derived native cryptic peptide]
[3]
  RA (Relative Affinity): ≥ 10
  binding to / affinity for HLA-B*0702 (in words): low affinity
[2]
  immunogenicity in HLA-B*0702 transgenic mice (in words): only the high affinity TERT4 was immunogenic
